# Measurements taken from ChEMBL document CHEMBL1155333, “Amine substituted N-(1H-benzimidazol-2ylmethyl)-5,6,7,8-tetrahydro-8-quinolinamines as CXCR4 antagonists with potent activity against HIV-1” (Bioorg Med Chem Lett, 2009).
# The source made the active and inactive calls. The calls are words filed in the database; no cut-off is given here.
# Legend:
# [1] = tested on: Human immunodeficiency virus 1; test: Antiviral activity against HIV1 3B infected in human HOS cells; format: functional, organism-based; settings: Human immunodeficiency virus 1, 3B
# [2] = biological target: C-X-C chemokine receptor type 4 (Homo sapiens) (UniProt P61073); test: Antagonist activity at CXCR4 by noncompetitive binding assay
# [3] = Cytotoxicity against human HOS cells; format: cell-based
# [4] = tested on: Human immunodeficiency virus 1; test: Ratio of AMD070 IC50 to compound IC50 for HIV1 3B infected in human HOS cells; format: functional
# Chain of C-X-C chemokine receptor type 4 (Homo sapiens) (P61073 whole entry): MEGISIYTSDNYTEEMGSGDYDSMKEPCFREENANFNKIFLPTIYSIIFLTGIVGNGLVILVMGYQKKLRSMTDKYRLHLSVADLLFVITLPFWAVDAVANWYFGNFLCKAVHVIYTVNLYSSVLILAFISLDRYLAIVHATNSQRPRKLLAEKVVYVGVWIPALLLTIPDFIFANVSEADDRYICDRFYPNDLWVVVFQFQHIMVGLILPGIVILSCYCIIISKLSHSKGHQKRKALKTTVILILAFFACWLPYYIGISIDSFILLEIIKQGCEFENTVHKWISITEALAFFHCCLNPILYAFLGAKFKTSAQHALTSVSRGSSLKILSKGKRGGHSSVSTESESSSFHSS
Structure (SMILES),IC50 [1] [nM],Activity [2],CC50 [3] [nM],Ratio IC50 [4]
CN(Cc1nc2cccc(CNCCc3cnc[nH]3)c2[nH]1)C1CCCc2cccnc21 (stereo not given),41,Active,–,–
CN(Cc1nc2c(C(=O)NCCN)cccc2[nH]1)C1CCCc2cccnc21 (stereo not given),–,–,> 10000,–
CN(Cc1nc2cccc(N3CCNCC3)c2[nH]1)C1CCCc2cccnc21 (stereo not given),6,Active,–,–
CN(Cc1nc2c(N3CCNCC3)cccc2[nH]1)C1CCCc2cccnc21 (stereo not given),–,–,> 20000,–
CN1CCN(c2cccc3nc(CN(C)[C@H]4CCCc5cccnc54)[nH]c23)CC1,0.6,Active,12500,–
CN(Cc1nc2ccccc2[nH]1)C1CCCc2cccnc21 (stereo not given),1350,Active,5300,–
CN(Cc1nc2c(CCCN)cccc2[nH]1)C1CCCc2cccnc21 (stereo not given),–,–,10000,–
CN(Cc1nc2c(CN3CCNCC3)cccc2[nH]1)C1CCCc2cccnc21 (stereo not given),–,–,12000,–
CN(C)CCCc1cccc2nc(CN(C)C3CCCc4cccnc43)[nH]c12 (stereo not given),22,Active,–,–
CN(Cc1nc2cccc(CN3CCNCC3)c2[nH]1)C1CCCc2cccnc21 (stereo not given),13,Active,–,–
CN(C)CCCn1c(CN(C)C2CCCc3cccnc32)nc2ccccc21 (stereo not given),17,Active,16800,–
CN(Cc1nc2c(CCCN3CCCC3)cccc2[nH]1)C1CCCc2cccnc21 (stereo not given),–,–,8200,–
CN(Cc1nc2cccc(C(=O)NCCCN)c2[nH]1)C1CCCc2cccnc21 (stereo not given),134,Active,> 20000,–
CN(Cc1nc2cccc(C(=O)NCCCCN)c2[nH]1)C1CCCc2cccnc21 (stereo not given),396,Active,> 20000,–
CN(Cc1nc2cccc(CCCN)c2[nH]1)C1CCCc2cccnc21 (stereo not given),24,Active,–,–
CN1CCN(c2cccc3nc(CN(C)C4CCCc5cccnc54)[nH]c23)CC1 (racemic),2,Active,14000,10
CN(Cc1nc2ccccc2n1CCCNC(=N)N)C1CCCc2cccnc21 (stereo not given),26,Active,> 20000,–
CN(Cc1nc2cccc(CCCN3CCCCC3)c2[nH]1)C1CCCc2cccnc21 (stereo not given),25,Active,–,–
CN1CCN(C(=O)c2cccc3nc(CN(C)C4CCCc5cccnc54)[nH]c23)CC1 (stereo not given),33,Active,–,–

Structure (SMILES),IC50 [1] [nM],Activity [2],CC50 [3] [nM],Ratio IC50 [4]
CN(Cc1nc2c(CNCCc3c[nH]cn3)cccc2[nH]1)C1CCCc2cccnc21 (stereo not given),–,–,> 20000,–
CN(Cc1nc2ccccc2n1CCCCN)C1CCCc2cccnc21 (stereo not given),144,Active,2900,–
CN(Cc1nc2cccc(CN)c2[nH]1)C1CCCc2cccnc21 (stereo not given),1300,Active,> 20000,–
CN1CCN(C(=O)c2cccc3[nH]c(CN(C)C4CCCc5cccnc54)nc23)CC1 (stereo not given),–,–,> 10000,–
CN(Cc1nc2ccccc2n1CCCN)C1CCCc2cccnc21 (stereo not given),44,Active,> 20000,–
NCCCCN(Cc1nc2ccccc2[nH]1)[C@H]1CCCc2cccnc21 [MAVORIXAFOR],10,Active,> 10000,–
CN(Cc1nc2cccc(CNCCN)c2[nH]1)C1CCCc2cccnc21 (stereo not given),540,Active,> 20000,–
CN(Cc1nc2cccc(C(=O)N3CCNCC3)c2[nH]1)C1CCCc2cccnc21 (stereo not given),46,Active,> 20000,–
CN(Cc1nc2c(CCCN3CCCCC3)cccc2[nH]1)C1CCCc2cccnc21 (stereo not given),–,–,8700,–
CN(Cc1nc2ccccc2n1CCCCCN)C1CCCc2cccnc21 (stereo not given),228,Active,4500,–
CN1CCN(c2cccc3nc(CN(C)[C@@H]4CCCc5cccnc54)[nH]c23)CC1,6.9,Active,12300,–
CN(Cc1nc2cccc(C(=O)NCCc3cnc[nH]3)c2[nH]1)C1CCCc2cccnc21 (stereo not given),19,Active,> 10000,–
CN(Cc1nc2ccccc2n1CCN)C1CCCc2cccnc21 (stereo not given),197,Active,> 20000,–
CN(Cc1nc2ccccc2n1CCCNC(=O)C(F)(F)F)C1CCCc2cccnc21 (stereo not given),243,Active,10400,–
CN(Cc1nc2cccc(C(=O)NCCN)c2[nH]1)C1CCCc2cccnc21 (stereo not given),27,Active,–,–
CN(Cc1nc2cccc(N3CCN(C(=O)OC(C)(C)C)CC3)c2[nH]1)C1CCCc2cccnc21 (stereo not given),271,Active,> 10000,–
CN(Cc1nc2cccc(CCCN3CCCC3)c2[nH]1)C1CCCc2cccnc21 (stereo not given),23,Active,–,–
CN(C)CCCc1cccc2[nH]c(CN(C)C3CCCc4cccnc43)nc12 (stereo not given),–,–,7500,–
